From US9377453B2, “Systems and methods for detection of cellular stress” (RAMOT AT TEL AVIV UNIVERSITY LTD., priority 2010, dated 2016)
Entries after “also recorded” stand apart in the source; their conditions may differ.

System: CHO cells
Test: Subcellular localization of Cy3-labeled tRNA in CHO cells treated with puromycin
Assay type: cell-based, Chinese hamster
Conditions: puromycin 1 mM, 0.5 h, 7 h post transfection; treated vs untreated CHO cells
Description: Chinese hamster ovary cells (CHO-Ki) were maintained in nutrient mixture F-12 (Ham) supplemented with 10% (v/v) fetal calf serum, 5 mM L-glutamine and antibiotics (all from Biological Industries).
Transfection—Cells were seeded in the day preceding the transfection (1.5×10^5 cells, 12 mm coverslips, in 24-well plates). Transfection was with 3 μg of yeast labeled-bulk tRNA (Interferin™, polyplus-transfection, according to manufacture's instructions). For DNA transfection (pSuper-retro-GFP), 9×10^4 cells/well were transfected with 1 μg DNA (TransIT-LT1 transfection reagent, according to manufacture's protocol). The following day, cells were re-transfected with labeled tRNA as described above.
Quantitative image analysis—For quantitative analysis of spatial distribution of the labeled tRNA and additional cellular markers, the entire cell volume was imaged by spinning disk confocal microscopy (0.15 μm between planes of the z-stack) with a 100× lens and 1×1 “on chip binning” yielding a pixel size of 100×100 nm; and deconvolved with the constrained iterative algorithm of Slidebook™ which employs an experimentally measured point spread function (PSF). […]

Compound: COc1ccc(C[C@H](N)C(=O)N[C@H]2[C@@H](O)[C@H](n3cnc4c(N(C)C)ncnc43)O[C@@H]2CO)cc1 [puromycin]
- Nuclear localization of labeled tRNA (tRNA signal co-localizing with Hoechst signal): marked accumulation of tRNA in the nucleus; also recorded: increase in nuclear localization of labeled tRNA
